Assays:
sedge, umbrella = test: Test B flooded paddy test; type: in vivo, Cyperus difformis; conditions: 250 g ai/ha, Flood, 13 days, 0 to 100 scale (0 no effect, 100 complete control)
Summary of the method: (§1)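 Application into standing water (3 cm above soil) at the two-leaf stage; flood depth held constant. Evaluation: day 13, visual comparison with controls, 0 = no injury, 100 = complete control.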

rice = test: Test B flooded paddy test; type: in vivo, Oryza sativa; conditions: 250 g ai/ha, Flood, 13 days, 0 to 100 scale (0 no effect, 100 complete control)
Summary of the method: as §1

soybean [1] = test: Test A postemergence; type: in vivo, Glycine max; conditions: postemergence, 10 days; for Soybean plant response rating: 125 g ai/ha, 0 to 100 scale, 0 no effect, 100 complete control; for Plant response rating, Soybean: 500 g ai/ha, visual injury, 0 to 100 scale (0 no effect, 100 complete control)
Summary of the method: (§2)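 Plants were grown in loam and sand and treated preemergence or postemergence (one- to two-leaf stage, 2–10 cm) with compound in solvent plus surfactant. Response was scored against untreated controls after 10 greenhouse days, where 0 means no effect and 100 complete control.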

oat, wild [2] = test: Test A postemergence; type: in vivo, Avena fatua; conditions: postemergence, 10 days; for Oat, Wild plant response rating: 125 g ai/ha, 0 to 100 scale, 0 no effect, 100 complete control; for Plant response rating, Oat, Wild: 500 g ai/ha, visual injury, 0 to 100 scale (0 no effect, 100 complete control)
Summary of the method: as §2

kochia [3] = test: Test A preemergence; type: in vivo, Bassia scoparia; conditions: 0 to 100 scale
Summary of the method: as §2

soybean [4] = test: Test A preemergence; type: in vivo, Glycine max; conditions: 0 to 100 scale
Summary of the method: as §2

blackgrass [5] = test: Test A preemergence; type: in vivo, Alopecurus myosuroides; conditions: 0 to 100 scale
Summary of the method: as §2

galium = test: Test A postemergence; type: in vivo, Galium aparine; conditions: postemergence, 10 days; for Galium plant response rating: 125 g ai/ha, 0 to 100 scale, 0 no effect, 100 complete control; for Plant response rating, Galium: 500 g ai/ha, visual injury, 0 to 100 scale (0 no effect, 100 complete control)
Summary of the method: as §2

ryegrass, Italian [6] = test: Test A postemergence; type: in vivo, Lolium multiflorum; conditions: postemergence, 10 days; for Ryegrass, Italian plant response rating: 125 g ai/ha, 0 to 100 scale, 0 no effect, 100 complete control; for Plant response rating, Ryegrass, Italian: 500 g ai/ha, visual injury, 0 to 100 scale (0 no effect, 100 complete control)
Summary of the method: as §2

oat, wild [7] = test: Test A preemergence; type: in vivo, Avena fatua; conditions: 0 to 100 scale
Summary of the method: as §2

blackgrass [8] = test: Test A postemergence; type: in vivo, Alopecurus myosuroides; conditions: postemergence, 10 days; for Blackgrass plant response rating: 125 g ai/ha, 0 to 100 scale, 0 no effect, 100 complete control; for Plant response rating, Blackgrass: 500 g ai/ha, visual injury, 0 to 100 scale (0 no effect, 100 complete control)
Summary of the method: as §2

ryegrass, Italian [9] = test: Test A preemergence; type: in vivo, Lolium multiflorum; conditions: 0 to 100 scale
Summary of the method: as §2

barnyardgrass [10] = test: Test A postemergence; type: in vivo, Echinochloa crusgalli; conditions: postemergence, 10 days; for Barnyardgrass plant response rating: 125 g ai/ha, 0 to 100 scale, 0 no effect, 100 complete control; for Plant response rating, Barnyardgrass: 500 g ai/ha, visual injury, 0 to 100 scale (0 no effect, 100 complete control)
From the text: (§3) Seeds of plant species selected from barnyardgrass (Echinochloa crusgalli), blackgrass (Alopecurus myosuroides), corn (Zea mays), foxtail, giant (giant foxtail, Setaria faberi), goosegrass (Eleusine indica), kochia (Bassia scoparia), oat, wild (wild oat, Avena fatua), pigweed, palmer (palmer amaranth, palmer pigweed, Amaranthus palmeri), Pigweed, Redroot (redroot pigweed, Amaranthus retroflexus), ragweed (common ragweed, Ambrosia artemisiifolia), ryegrass, Italian (italian ryegrass, Lolium multiflorum), soybean (Glycine max), and wheat (Triticum aestivum) were planted into a blend of loam soil and sand and treated preemergence with a directed soil spray using test chemicals formulated in a non-phytotoxic solvent mixture which included a surfactant. At the same time, plants selected from these crops and weed species and also galium (catchweed bedstraw, Galium aparine) and horseweed (Erigeron canadensis) were planted in pots containing the same blend of loam soil and sand and treated with postemergence applications of test chemicals formulated in the same manner. Plants ranged in height from 2 to 10 cm and were in the one- to two-leaf stage for the postemergence treatment. Treated plants and untreated controls were maintained in a greenhouse for 10 days, after which time all treated plants were compared to untreated controls and visually evaluated for injury. Plant response ratings, summarized in Table A, are based on a 0 to 100 scale where 0 is no effect and 100 is complete control. A dash (-) response means no test result.

barnyardgrass [11] = test: Test B flooded paddy test; type: in vivo, Echinochloa crus-galli; conditions: 250 g ai/ha, Flood, 13 days, 0 to 100 scale (0 no effect, 100 complete control)
Summary of the method: as §1

ragweed [12] = test: Test A postemergence; type: in vivo, Ambrosia artemisiifolia; conditions: postemergence, 10 days; for Ragweed plant response rating: 125 g ai/ha, 0 to 100 scale, 0 no effect, 100 complete control; for Plant response rating, Ragweed: 500 g ai/ha, visual injury, 0 to 100 scale (0 no effect, 100 complete control)
Summary of the method: as §2

pigweed, palmer [13] = test: Test A preemergence; type: in vivo, Amaranthus palmeri; conditions: 0 to 100 scale
Summary of the method: as §2

corn [14] = test: Test A preemergence; type: in vivo, Zea mays; conditions: 0 to 100 scale
Summary of the method: as §2

ragweed [15] = test: Test A preemergence; type: in vivo, Ambrosia artemisiifolia; conditions: 0 to 100 scale
Summary of the method: as §2

pigweed, palmer [16] = test: Test A postemergence; type: in vivo, Amaranthus palmeri; conditions: postemergence, 10 days; for Pigweed, Palmer plant response rating: 125 g ai/ha, 0 to 100 scale, 0 no effect, 100 complete control; for Plant response rating, Pigweed, Palmer: 500 g ai/ha, visual injury, 0 to 100 scale (0 no effect, 100 complete control)
Summary of the method: as §2

kochia [17] = test: Test A postemergence; type: in vivo, Bassia scoparia; conditions: postemergence, 10 days; for Kochia plant response rating: 125 g ai/ha, 0 to 100 scale, 0 no effect, 100 complete control; for Plant response rating, Kochia: 500 g ai/ha, visual injury, 0 to 100 scale (0 no effect, 100 complete control)
Summary of the method: as §2

ducksalad = test: Test B flooded paddy test; type: in vivo, Heteranthera limosa; conditions: 250 g ai/ha, Flood, 13 days, 0 to 100 scale (0 no effect, 100 complete control)
Summary of the method: as §1

barnyardgrass [18] = test: Test A preemergence; type: in vivo, Echinochloa crusgalli; conditions: visual injury after 10 days, 0 to 100 scale, 0 is no effect, 100 is complete control
From the text: as §3

wheat [19] = test: Test A postemergence; type: in vivo, Triticum aestivum; conditions: postemergence, 10 days; for Wheat plant response rating: 125 g ai/ha, 0 to 100 scale, 0 no effect, 100 complete control; for Plant response rating, Wheat: 500 g ai/ha, visual injury, 0 to 100 scale (0 no effect, 100 complete control)
Summary of the method: as §2

wheat [20] = test: Test A preemergence; type: in vivo, Triticum aestivum; conditions: 0 to 100 scale
Summary of the method: as §2

corn [21] = test: Test A postemergence; type: in vivo, Zea mays; conditions: postemergence, 10 days; for Corn plant response rating: 125 g ai/ha, 0 to 100 scale, 0 no effect, 100 complete control; for Plant response rating, Corn: 500 g ai/ha, visual injury, 0 to 100 scale (0 no effect, 100 complete control)
Summary of the method: as §2

horseweed = test: Test A postemergence; type: in vivo, Erigeron canadensis; conditions: postemergence, 10 days; for Horseweed plant response rating: 125 g ai/ha, 0 to 100 scale, 0 no effect, 100 complete control; for Plant response rating, Horseweed: 500 g ai/ha, visual injury, 0 to 100 scale (0 no effect, 100 complete control)
Summary of the method: as §2

foxtail, giant = test: Test A preemergence; type: in vivo, Setaria faberi; conditions: 0 to 100 scale
Summary of the method: as §2

[22] = 500 g ai/ha, visual injury after 10 days, 0 is no effect, 100 is complete control

## Cc1ccc(-n2cnc(CO)n2)cc1C(=O)N1C[C@H](C)Oc2c(Cl)cccc21 [Compound 148]
sedge, umbrella
  Plant response rating, Sedge, Umbrella: 65
rice
  Plant response rating, Rice: 15
Soybean [1]
  Soybean plant response rating: 100
  Plant response rating, Soybean: 100
oat, wild [2]
  Oat, Wild plant response rating: 20
  Plant response rating, Oat, Wild: 70
Kochia [3]; 125 g ai/ha
  Plant response rating, Kochia: 20
Kochia [3]; [22]
  Plant response rating, Kochia: 70
Soybean [4]; 125 g ai/ha
  Plant response rating, Soybean: 70
Soybean [4]; [22]
  Plant response rating, Soybean: 100
Blackgrass [5]; 125 g ai/ha
  Plant response rating, Blackgrass: 80
Blackgrass [5]; [22]
  Plant response rating, Blackgrass: 90
galium
  Galium plant response rating: 90
  Plant response rating, Galium: 100
ryegrass, Italian [6]
  Ryegrass, Italian plant response rating: 50
  Plant response rating, Ryegrass, Italian: 80
oat, wild [7]; 125 g ai/ha
  Plant response rating, Oat, Wild: 20
oat, wild [7]; [22]
  Plant response rating, Oat, Wild: 80
Blackgrass [8]
  Blackgrass plant response rating: 40
  Plant response rating, Blackgrass: 90
ryegrass, Italian [9]; 125 g ai/ha
  Plant response rating, Ryegrass, Italian: 80
ryegrass, Italian [9]; [22]
  Plant response rating, Ryegrass, Italian: 100
Barnyardgrass [10]
  Barnyardgrass plant response rating: 30
  Plant response rating, Barnyardgrass: 80
Barnyardgrass [11]
  Plant response rating, Barnyardgrass: 25
Ragweed [12]
  Ragweed plant response rating: 50
  Plant response rating, Ragweed: 70
pigweed, palmer [13]; 125 g ai/ha
  Plant response rating, Pigweed, Palmer: 100
pigweed, palmer [13]; [22]
  Plant response rating, Pigweed, Palmer: 100
Corn [14]; 125 g ai/ha
  Plant response rating, Corn: 60
Corn [14]; [22]
  Plant response rating, Corn: 60
Ragweed [15]; 125 g ai/ha
  Plant response rating, Ragweed: 30
Ragweed [15]; [22]
  Plant response rating, Ragweed: 90
pigweed, palmer [16]
  Pigweed, Palmer plant response rating: 90
  Plant response rating, Pigweed, Palmer: 100
Kochia [17]
  Kochia plant response rating: 50
  Plant response rating, Kochia: 80
ducksalad
  Plant response rating, Ducksalad: 55
Barnyardgrass [18]; 125 g ai/ha
  Plant response rating, Barnyardgrass: 70
Barnyardgrass [18]; 500 g ai/ha
  Plant response rating, Barnyardgrass: 100
Wheat [19]
  Wheat plant response rating: 30
  Plant response rating, Wheat: 70
Wheat [20]; 125 g ai/ha
  Plant response rating, Wheat: 30
Wheat [20]; [22]
  Plant response rating, Wheat: 90
Corn [21]
  Corn plant response rating: 80
  Plant response rating, Corn: 90
horseweed
  Horseweed plant response rating: 50
  Plant response rating, Horseweed: 50
foxtail, giant; 125 g ai/ha
  Plant response rating, Foxtail, Giant: 100
foxtail, giant; [22]
  Plant response rating, Foxtail, Giant: 100

## C[C@H]1CN(C(=O)c2cc(I)cc(-n3cncn3)c2)c2cccc(Cl)c2O1 [Compound 137]
sedge, umbrella
  Plant response rating, Sedge, Umbrella: 0
rice
  Plant response rating, Rice: 0
Soybean [1]
  Soybean plant response rating: 80
  Plant response rating, Soybean: 90
oat, wild [2]
  Oat, Wild plant response rating: 0
  Plant response rating, Oat, Wild: 0
Kochia [3]; 125 g ai/ha
  Plant response rating, Kochia: 0
Kochia [3]; [22]
  Plant response rating, Kochia: 0
Soybean [4]; 125 g ai/ha
  Plant response rating, Soybean: 0
Soybean [4]; [22]
  Plant response rating, Soybean: 0
Blackgrass [5]; 125 g ai/ha
  Plant response rating, Blackgrass: 0
Blackgrass [5]; [22]
  Plant response rating, Blackgrass: 30
galium
  Galium plant response rating: 80
  Plant response rating, Galium: 90
ryegrass, Italian [6]
  Ryegrass, Italian plant response rating: 20
  Plant response rating, Ryegrass, Italian: 30
oat, wild [7]; 125 g ai/ha
  Plant response rating, Oat, Wild: 0
oat, wild [7]; [22]
  Plant response rating, Oat, Wild: 0
Blackgrass [8]
  Blackgrass plant response rating: 20
  Plant response rating, Blackgrass: 70
ryegrass, Italian [9]; 125 g ai/ha
  Plant response rating, Ryegrass, Italian: 70
ryegrass, Italian [9]; [22]
  Plant response rating, Ryegrass, Italian: 80
Barnyardgrass [10]
  Barnyardgrass plant response rating: 10
  Plant response rating, Barnyardgrass: 10
Barnyardgrass [11]
  Plant response rating, Barnyardgrass: 0
Ragweed [12]
  Ragweed plant response rating: 30
  Plant response rating, Ragweed: 30
pigweed, palmer [13]; 125 g ai/ha
  Plant response rating, Pigweed, Palmer: 10
pigweed, palmer [13]; [22]
  Plant response rating, Pigweed, Palmer: 80
Corn [14]; 125 g ai/ha
  Plant response rating, Corn: 0
Corn [14]; [22]
  Plant response rating, Corn: 50
Ragweed [15]; 125 g ai/ha
  Plant response rating, Ragweed: 0
Ragweed [15]; [22]
  Plant response rating, Ragweed: 0
pigweed, palmer [16]
  Pigweed, Palmer plant response rating: 30
  Plant response rating, Pigweed, Palmer: 60
Kochia [17]
  Kochia plant response rating: 30
  Plant response rating, Kochia: 70
ducksalad
  Plant response rating, Ducksalad: 0
Barnyardgrass [18]; 125 g ai/ha
  Plant response rating, Barnyardgrass: 0
Barnyardgrass [18]; 500 g ai/ha
  Plant response rating, Barnyardgrass: 40
Wheat [19]
  Wheat plant response rating: 10
  Plant response rating, Wheat: 10
Wheat [20]; 125 g ai/ha
  Plant response rating, Wheat: 0
Wheat [20]; [22]
  Plant response rating, Wheat: 0
Corn [21]
  Corn plant response rating: 10
  Plant response rating, Corn: 10
horseweed
  Horseweed plant response rating: 0
  Plant response rating, Horseweed: 30
